Laboratory results published in US20250026724A1, “(1,4,5-TRISUBSTITUTED 1H-PYRAZOL-3-YL)OXY-2-ALKYLTHIOALKYL ACIDS AND -ALKYL ACID DERIVATIVES, SALTS THEREOF AND USE THEREOF AS ACTIVE HERBICIDAL INGREDIENTS” (BAYER AKTIENGESELLSCHAFT, priority 2021, published 2025).

Columns and labels:
Test in all cases: Post-emergence herbicidal action, greenhouse pot trial
Type in all cases: in vivo
[1] = tested on: Abutilon theophrasti (ABUTH); settings: Abutilon theophrasti, 504 h, visual rating after about 3 weeks; for pest or weed control at 320 g/ha: read-out: Post-emergence effect at 320 g/ha against ABUTH in %
Protocol: (§1) Seeds of monocotyledonous and dicotyledonous weeds and crop plants are placed in sandy loam in plastic or organic planting pots, covered with soil and cultivated in a greenhouse under controlled growth conditions. 2 to 3 weeks after sowing, the trial plants are treated at the one-leaf stage. The compounds of the invention, formulated in the form of wettable powders (WP) or as emulsion concentrates (EC), are then sprayed onto the green parts of the plants as aqueous suspension or emulsion with addition of 0.5% additive at a water application rate equivalent to 600 l/ha. After about 3 weeks of keeping the trial plants in the greenhouse under optimum growth conditions, the effect of the preparations is rated visually in comparison to untreated controls. For example, 100% activity=the plants have died, 0% activity=like control plants.
(§2) Tables B1 to B14 below show the effects of selected compounds of the general formula (I) according to Table 1 on various harmful plants and at an application rate corresponding to 320 g/ha or lower, which were obtained by the trial procedure specified above. The appendices “a”, “b” and “c” give differentiation by dosage used with otherwise the same harmful plants tested.
(§3) As shown by results from Tables B1 to B19, inventive compounds of the general formula (I) in the case of post-emergence treatment have good herbicidal efficacy against harmful plants, for example Abutilon theophrasti (ABUTH), Alopecurus myosuroides (ALOMY), Amaranthus retroflexus (AMARE), Avena fatua (AVEFA), Digitaria sanguinalis (DIGSA), Echinochloa crus-galli (ECHCG), Bassia scoparia (KCHSC), Lolium rigidum (LOLRI), Matricaria inodora (MATIN), Pharbitis purpurea (PHBPU), Polygonum convolvulus (POLCO), Setaria viridis (SETVI), Veronica persica (VERPE) and Viola tricolor (VIOTR) at an application rate of 320 g of active substance or less per hectare, and good crop plant compatibility in the case of organisms such as Oryza sativa (ORYSA), Zea mays (ZEAMX), Brassica napus (BRSNW), Glycine max (GLXMA) and Triticum aestivum (TRZAS) at an application rate of 320 g or less per hectare.

[2] = tested on: Amaranthus retroflexus (AMARE); settings: Amaranthus retroflexus, 504 h, visual rating after about 3 weeks; for pest or weed control at 80 g/ha: read-out: Post-emergence effect at 80 g/ha against AMARE in %; for pest or weed control at 320 g/ha: read-out: Post-emergence effect at 320 g/ha against AMARE in %
Protocol: as §1, §2, §3

[3] = tested on: Digitaria sanguinalis (DIGSA); settings: visual rating after about 3 weeks; for pest or weed control at 320 g/ha: Digitaria sanguinalis, 504 h, read-out: Post-emergence effect at 320 g/ha against DIGSA in %
Protocol: as §1, §2, §3

[4] = tested on: Echinochloa crus-galli (ECHCG); settings: Echinochloa crus-galli, 504 h, visual rating after about 3 weeks; for pest or weed control at 320 g/ha: read-out: Post-emergence effect at 320 g/ha against ECHCG in %
Protocol: as §1, §2, §3

[5] = tested on: Pharbitis purpurea (PHBPU); settings: Ipomoea purpurea, 504 h, visual rating after about 3 weeks; for pest or weed control at 80 g/ha: read-out: Post-emergence effect at 80 g/ha against PHBPU in %; for pest or weed control at 320 g/ha: read-out: Post-emergence effect at 320 g/ha against PHBPU in %
Protocol: as §1, §2, §3

[6] = tested on: Polygonum convolvulus (POLCO); settings: Fallopia convolvulus, 504 h, visual rating after about 3 weeks; for pest or weed control at 320 g/ha: read-out: Post-emergence effect at 320 g/ha against POLCO in %
Protocol: as §1, §2, §3

Setaria viridis (SETVI) = settings: Setaria viridis, 504 h, 320 g/ha, visual rating after about 3 weeks, read-out: Post-emergence effect at 320 g/ha against SETVI in %
Protocol: as §1, §2, §3

Viola tricolor (VIOTR) = settings: Viola tricolor, 504 h, read-out: Post-emergence effect against VIOTR
Protocol: as §1, §2, §3

Avena fatua (AVEFA) = settings: Avena fatua, 504 h, 320 g/ha, visual rating after about 3 weeks, read-out: Post-emergence effect at 320 g/ha against AVEFA in %
Protocol: as §1, §2, §3

Bassia scoparia (KCHSC) = settings: Bassia scoparia, 504 h, 320 g/ha, read-out: Post-emergence effect against KCHSC
Protocol: as §1, §2, §3

[7] = tested on: Matricaria inodora (MATIN); settings: Tripleurospermum inodorum, 504 h, 320 g/ha, visual rating after about 3 weeks, read-out: Post-emergence effect at 320 g/ha against MATIN in %
Protocol: as §1, §2, §3

SMILES | pest or weed control at 320 g/ha [1] | pest or weed control at 80 g/ha [2] | pest or weed control at 320 g/ha [2] | pest or weed control at 320 g/ha [3] | pest or weed control at 320 g/ha [4] | pest or weed control at 80 g/ha [5] | pest or weed control at 320 g/ha [5] | pest or weed control at 80 g/ha ([6]; 80 g/ha, read-out: Post-emergence effect at 80 g/ha against POLCO in %) | pest or weed control at 320 g/ha [6] | pest or weed control at 320 g/ha (Setaria viridis (SETVI)) | pest or weed control at 80 g/ha (Viola tricolor (VIOTR)) | pest or weed control at 320 g/ha (Viola tricolor (VIOTR)) | pest or weed control at 80 g/ha ([1]; 80 g/ha, read-out: Post-emergence effect at 80 g/ha against ABUTH in %) | pest or weed control at 320 g/ha (Avena fatua (AVEFA)) | pest or weed control at 320 g/ha (Bassia scoparia (KCHSC)) | Post-emergence effect at 80 g/ha against DIGSA in % ([3]; 80 g/ha) | pest or weed control at 80 g/ha ([4]; 80 g/ha, read-out: Post-emergence effect at 80 g/ha against ECHCG in %) | pest or weed control at 320 g/ha [7]
CCOC(=O)C(Oc1nn(-c2ncccc2F)c(-c2ccc(F)nc2)c1I)SC (stereo not shown) [Example I-18] | 90% | 80% | 90% | 80% | 100% | 80% | 90% | 90% | 90% | 90% | 90% | 90% | – | – | – | – | – | –
CCOC(=O)C(Oc1nn(-c2ncccc2F)c(-c2ccc(F)nc2)c1C1CC1)SC (stereo not shown) [Example I-20] | 90% | 80% | 80% | – | 90% | – | – | – | – | – | 80% | 90% | 80% | – | – | – | – | –
CSC(Oc1nn(-c2ccccc2F)c(-c2ccc(F)nc2)c1I)C(=O)O (stereo not shown) [Example I-21] | 80% | – | 90% | – | 90% | – | – | – | 80% | 90% | 80% | 90% | – | – | – | – | – | –
CSC(Oc1nn(-c2ncccc2F)c(-c2ccc(F)nc2)c1C1CC1)C(=O)O (stereo not shown) [Example I-33] | – | – | – | – | 80% | – | – | – | – | – | – | 80% | – | 80% | – | – | – | –
CSC(Oc1nn(-c2ncccc2F)c(-c2ccc(F)nc2)c1Br)C(=O)O (stereo not shown) [Example I-34] | 90% | – | 80% | 90% | 90% | 80% | 90% | – | 90% | 90% | – | 90% | – | – | 80% | 80% | 80% | 80%
CSC(Oc1nn(-c2ncccc2F)c(-c2ccc(F)nc2)c1C(F)(F)F)C(=O)O (stereo not shown) [Example I-38] | 80% | – | – | – | – | – | – | – | 90% | – | – | 90% | – | – | – | – | – | 80%
CCOC(=O)C(Oc1nn(-c2ccccc2F)c(-c2ccc(F)nc2)c1I)SC (stereo not shown) [Example I-68] | – | – | 90% | 80% | 90% | – | – | – | 80% | 90% | – | 90% | – | – | – | – | – | –
